How the values were obtained:
[1] = test system: TGFβ-treated mouse kidney fibroblasts; test: Specificity: gene expression in TGFβ-treated mouse kidney fibroblasts; assay type: cell-based; conditions: 10 µM, Fig. S6
Procedure: (§1) Primary human cardiac fibroblasts (HCF) were obtained from Promocell (Heidelberg, Germany) and maintained in Fibroblast Media 3 following manufacturer’s instructions (Promocell). Cells were used between passages 5 and 7. Cells were stimulated with recombinant hNGAL (500 ng/mL, R&D Systems) or with TGFβ (10 ng/mL, R&D Systems) for 24 h. To assess cell proliferation the MTT test was used following provider’s instructions (Roche). For protein analysis. Primary Mouse Kidney Fibroblasts (MKF) were isolated from Wild Type (WT) mice. Briefly, 8 weeks old mice were sacrificed by cervical dislocation and kidneys were cleaned and rinsed in cold DPBS (Dulbecco's Phosphate-Buffered Saline). The renal cortex was minced and incubated in Dulbecco’s modified eagle medium/Nutrient mixture F-12 (DMEM/F12, Sigma) containing 1 mg/mL collagenase A (Roche) during 25 min at 37 °C. The digestion was inactivated by adding culture medium (DMEM/F12 + 10% FBS) then the cell suspension was passed through a 100-μm cell strainer. […]
Frozen tissues (kidneys, heart) were homogenized in TRIzol (Life Technologies, Illinois, USA) using FastPrep beads (MP-Bio, CA, USA). cDNAs were generated using the Superscript II reverse transcriptase kit (Invitrogen,NY, USA), and qPCR was performed as previously described. Briefly, transcript levels were analysed in a CFX396 apparatus (Biorad). […]

[2] = test system: isolated hepatocytes from swiss mice; test: Hepatotoxicity, thiazolyl blue tetrazolium bromide (MTT) colorimetric assay; assay type: cell-based, mouse
Procedure: (§2) Several parameters have been evaluated to determine ADME-Tox profile of the compounds. Two specific toxicity assays have been performed to assess hepatoxicity and cardiotoxicity. Hepatotoxicity was evaluated in isolated hepatocytes from swiss mice and determined by the thiazolyl blue tetrazolium bromide colorimetric assay (sigma, St Louis, MO, USA). Cardiotoxicity was evaluated using the commercially available Predictor hERG fluorescence polarization kit (Thermo Fisher Scientific, Illinois, USA). Several absorption, distribution, metabolism, and excretion (ADME) assays have been carried out. The following experiments were undertaken: stability in human microsomes, binding to human plasma protein, and CYP3A4 inhibition assay (Vivid CYP3A4 assay, Thermo Fisher Scientific, Illinois, USA). Physico-chemical properties were also assessed such as aqueous solubility and chemical stability.

hNGAL [3] = target: T1, hNGAL (Homo sapiens, UniProt P80188); test: Cell proliferation (MTT) in hNGAL-treated human cardiac fibroblasts; assay type: cell-based
T1 construct: purchased R&D Systems
T1 sequence (P80188 21-198): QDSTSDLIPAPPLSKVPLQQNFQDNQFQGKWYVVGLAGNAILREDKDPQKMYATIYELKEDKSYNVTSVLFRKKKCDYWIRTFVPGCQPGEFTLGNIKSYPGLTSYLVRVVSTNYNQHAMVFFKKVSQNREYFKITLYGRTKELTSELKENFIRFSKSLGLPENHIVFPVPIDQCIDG
Procedure: (§3) Primary human cardiac fibroblasts (HCF) were obtained from Promocell (Heidelberg, Germany) and maintained in Fibroblast Media 3 following manufacturer’s instructions (Promocell). Cells were used between passages 5 and 7. Cells were stimulated with recombinant hNGAL (500 ng/mL, R&D Systems) or with TGFβ (10 ng/mL, R&D Systems) for 24 h. To assess cell proliferation the MTT test was used following provider’s instructions (Roche). For protein analysis. Primary Mouse Kidney Fibroblasts (MKF) were isolated from Wild Type (WT) mice. Briefly, 8 weeks old mice were sacrificed by cervical dislocation and kidneys were cleaned and rinsed in cold DPBS (Dulbecco's Phosphate-Buffered Saline). The renal cortex was minced and incubated in Dulbecco’s modified eagle medium/Nutrient mixture F-12 (DMEM/F12, Sigma) containing 1 mg/mL collagenase A (Roche) during 25 min at 37 °C. The digestion was inactivated by adding culture medium (DMEM/F12 + 10% FBS) then the cell suspension was passed through a 100-μm cell strainer. After centrifugation, the pellet (containing MKF) was diluted with culture medium then plated in 75 cm^2 culture flask. After 24 h MKF were washed with DPBS before replacement of fresh culture medium. Thereafter, culture medium was changed every 48 h. Once 70–80% confluent, MKF were trypsinized and plated in 12 or 6-well plates. For experimental use, MKF were starved with culture medium containing only 3% FBS. MKF were treated with mNGAL (500 ng/mL, R&D Systems) or with TGFβ (10 ng/mL, R&D Systems) for 6 h for gene expression analysis.
Cell proliferation was assessed using the MTT Proliferation Assay (Sigma).

Chemical stability = assay type: physicochemical
Procedure: as §2

Aqueous solubility = assay type: physicochemical
Procedure: as §2

hNGAL [4] = target: T1, hNGAL; test: hNGAL-induced intracellular profibrotic protein levels in human cardiac fibroblasts (Western blot); assay type: cell-based; set-up: % inhibition versus hNGAL on Col I protein level / % inhibition versus hNGAL on Col III protein level / % inhibition versus hNGAL on Fibronectin protein level / % inhibition versus hNGAL on Galectin 3 protein level: concentration or dose not given beside the values
Procedure: as §3
Total protein aliquots of 20 μg were prepared from cardiac homogenates and HCF and electrophoresed on SDS polyacrylamide gels and transferred to Hybond-c Extra nitrocellulose membranes (Amersham Biosciences). Membranes were incubated with primary antibodies for: Collagen I (Santa Cruz; dilution 1:500), Collagen type III (Santa Cruz; dilution 1:500), fibronectin (Millipore, 1:500), Galectin-3 (Thermo, 1:1000), α-SMA (Sigma, 1:1000), CTGF (Santa Cruz, 1:200), CD68 (Abcam, 1:500), CD80 (Santa Cruz, 1:500), CD86 (Santa Cruz, 1:500). […] After densitometric analyses, optical density values were expressed as arbitrary units. Results are expressed as an n-fold increase over the values of the control group in densitometric arbitrary units.

[5] = test system: TGFβ-treated human cardiac fibroblasts; test: Specificity: IL6 and Col I secretion in TGFβ-treated human cardiac fibroblasts; assay type: cell-based; conditions: 10 µM, Fig. S5
Procedure: as §1, with “strainer. After centrifugation, the pellet (containing MKF) was diluted with culture medium then plated in 75 cm^2 culture flask. After 24 h MKF were washed with DPBS before replacement of fresh culture medium.” for “strainer.”
(§4) IL6 and collagen type I concentrations were measured in cardiac tissue and cell supernatants by ELISA according to the manufacturer's instructions (R&D Systems).

hNGAL [6] = target: T1, hNGAL; test: hNGAL-induced IL6 and Col I secretion in human cardiac fibroblasts (ELISA); assay type: cell-based; set-up: % inhibition versus hNGAL on IL-6 secretion: concentration or dose not given beside the values; conditions: for IL-6 secretion: hNGAL-treated human cardiac fibroblasts, mean ± SEM
Procedure: as §3, §4

hERG channel = target: T2, hERG channel (Homo sapiens, UniProt Q12809); test: Cardiotoxicity, Predictor hERG fluorescence polarization kit; assay type: binding
T2 construct: purchased Thermo Fisher Scientific
T2 sequence (Q12809 whole entry): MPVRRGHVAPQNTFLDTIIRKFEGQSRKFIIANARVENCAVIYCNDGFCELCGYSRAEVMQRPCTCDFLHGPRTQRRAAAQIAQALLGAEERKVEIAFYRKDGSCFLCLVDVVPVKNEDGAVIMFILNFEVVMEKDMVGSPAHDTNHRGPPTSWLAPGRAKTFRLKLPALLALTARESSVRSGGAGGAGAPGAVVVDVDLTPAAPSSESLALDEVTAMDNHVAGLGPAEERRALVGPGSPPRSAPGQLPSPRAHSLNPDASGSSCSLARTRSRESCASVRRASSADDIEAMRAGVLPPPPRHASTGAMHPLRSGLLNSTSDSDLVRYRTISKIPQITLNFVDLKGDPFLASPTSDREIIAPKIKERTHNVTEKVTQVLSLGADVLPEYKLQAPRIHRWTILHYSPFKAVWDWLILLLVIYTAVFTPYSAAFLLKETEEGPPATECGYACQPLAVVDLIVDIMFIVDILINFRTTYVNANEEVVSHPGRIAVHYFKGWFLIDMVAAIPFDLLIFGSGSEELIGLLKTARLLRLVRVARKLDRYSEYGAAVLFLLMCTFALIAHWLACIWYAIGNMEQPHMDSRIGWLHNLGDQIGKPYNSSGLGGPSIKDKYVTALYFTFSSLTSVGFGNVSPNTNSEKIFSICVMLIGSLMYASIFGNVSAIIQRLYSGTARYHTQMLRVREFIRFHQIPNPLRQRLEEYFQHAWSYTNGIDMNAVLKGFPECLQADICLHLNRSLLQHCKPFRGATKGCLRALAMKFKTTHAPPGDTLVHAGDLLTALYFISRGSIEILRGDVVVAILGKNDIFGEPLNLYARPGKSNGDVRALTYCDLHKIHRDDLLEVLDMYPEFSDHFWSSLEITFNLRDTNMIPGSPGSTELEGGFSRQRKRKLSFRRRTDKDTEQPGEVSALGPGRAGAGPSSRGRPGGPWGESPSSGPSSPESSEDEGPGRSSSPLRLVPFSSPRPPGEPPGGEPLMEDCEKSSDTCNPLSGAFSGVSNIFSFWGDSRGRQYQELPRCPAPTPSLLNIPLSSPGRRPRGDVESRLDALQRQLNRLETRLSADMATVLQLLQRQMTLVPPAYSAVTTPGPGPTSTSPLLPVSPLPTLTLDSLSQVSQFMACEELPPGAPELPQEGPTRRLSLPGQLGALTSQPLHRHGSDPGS
Procedure: as §2

[7] = Table S2, human cardiac fibroblasts
[8] = 10 µM, human cardiac fibroblasts, Fig. 1C

CC(=O)c1cccc(S(=O)(=O)NCc2ccccc2-n2cccn2)c1 [GPZ614741]
Effect on TGFβ-induced gene expression of Col I, Fibronectin and IL6 [1]: no inhibitory effect
Hepatotoxicity (MTT) [2]: > 0.1 mM
Hepatotoxicity ([2]; Table S5, MTT): > 100 µM
hNGAL-induced cell proliferation, in words (hNGAL [3]; 10 µM, Fig. 1E): blocked
Dose–response on proliferation induced by NGAL (hNGAL [3]; Fig. S2): able to block the proliferative effects of NGAL at 1 and 10 µM, but not at lower concentrations
Stability to acidic pH, in words (Chemical stability): fully stable
Chemical Stability % (Chemical stability; Table S5): 103%
Solubility in aqueous buffers, in words (Aqueous solubility): perfectly soluble
Aquous solubility % (Aqueous solubility; Table S5): 100%
hNGAL-induced expression of intracellular profibrotic proteins (Col I, Col III, fibronectin, Gal3), in words (hNGAL [4]; 10 µM, human cardiac fibroblasts, Fig. 1D): blocked
Col III synthesis (protein level) (hNGAL [4]; Table S2, hNGAL-treated human cardiac fibroblasts, Control 1.0, NGAL 1.67, mean ± SEM): 1.05 ± 0.1
Fibronectin synthesis (protein level) (hNGAL [4]; Table S2, hNGAL-treated human cardiac fibroblasts, Control 1.0, NGAL 1.8, mean ± SEM): 0.95 ± 0.2
Col I synthesis (protein level) (hNGAL [4]; Table S2, hNGAL-treated human cardiac fibroblasts, Control 1.0, NGAL 2.03, mean ± SEM): 1.09 ± 0.2
Galectin-3 synthesis (protein level) (hNGAL [4]; Table S2, hNGAL-treated human cardiac fibroblasts, Control 1.0, NGAL 2.1, mean ± SEM): 1.3 ± 0.1
% inhibition versus hNGAL on Col I protein level (hNGAL [4]; [7]): 46.4%
% inhibition versus hNGAL on Col III protein level (hNGAL [4]; [7]): 37.1%
% inhibition versus hNGAL on Fibronectin protein level (hNGAL [4]; [7]): 47.2%
% inhibition versus hNGAL on Galectin 3 protein level (hNGAL [4]; [7]): 38.1%
Effect on TGFβ-increased IL6 and Col I secretion [5]: no inhibitory effect
Increase in IL6 secretion induced by NGAL (hNGAL [6]; 1 µM, human cardiac fibroblasts, Fig. S3): did not prevent
NGAL-induced Col I secretion, in words (hNGAL [6]; [8]): fully inhibited
NGAL-induced IL6 secretion, in words (hNGAL [6]; [8]): fully inhibited
IL-6 secretion (hNGAL [6]; Table S1, first generation compounds, Control 1.0 ± 0.1, NGAL 2.21 ± 0.2): 0.86 ± 0.2
% inhibition versus hNGAL on IL-6 secretion (hNGAL [6]; Table S1, first generation compounds, human cardiac fibroblasts): 61.1%
IL-6 secretion (hNGAL [6]; Table S4, second generation compounds and parents, Control 1.00, NGAL 1.45): 0.59 ± 0.02
% inhibition versus hNGAL on IL-6 secretion (hNGAL [6]; Table S4, second generation compounds and parents, human cardiac fibroblasts): 59.5%
Inhibitor effect on hNGAL-induced IL6 secretion, in words (hNGAL [6]; human cardiac fibroblasts, text on Tables S1 and S4): important inhibitor effect
Cardiotoxicity (hERG predictor assay), in words (hERG channel): nontoxic
Cardiotoxicity % (100= no toxicity) (hERG channel; Table S5, hERG predictor assay): 101.76 ± 2.48%

From article PMC7844219, “Antifibrotic effect of novel neutrophil gelatinase-associated lipocalin inhibitors in cardiac and renal disease models” (Scientific Reports, 2021)
